{
  "source": "paper PMC9964505",
  "about": "(International Journal of Molecular Sciences, 2023)",
  "key": {"[1]": {"tested_on": "mechanical hypersensitivity in a mouse SNI model", "set-up": "method as in PMID 34039739", "conditions": "intra-plantar injection; cited from earlier work"}, "[2]": {"tested_on": "persistent mechanical pain in mouse models", "set-up": "method as in PMID 34039739", "conditions": "hindpaw injection; mouse plantar incision, CFA and paclitaxel models; cited from earlier work"}, "uninjured mice": {"tested_on": "uninjured mice", "set-up": "method as in PMID 34039739", "conditions": "peripheral dosing; cited from earlier work"}, "[3]": {"experiment": "plasma protein binding, rapid equilibrium dialysis", "type": "in vitro ADME", "conditions": "rat plasma, 1 µg/mL, 37 °C, 4 h", "method": "Plasma protein binding studies were carried out in male Wistar Hannover rat plasma with heparin as the anticoagulant. All plasma samples were obtained from BioreclamationIVT (Baltimore, MD, USA). A Pierce Rapid Equilibrium Dialysis Device (RED) was used for the experiments. Aliquots of plasma (300 µL) containing the compound of interest (1 µg/mL) and phosphate-buffered saline (PBS) (500 µL) were added to the sample chamber and buffer chamber, respectively, on the RED device. The loaded dialysis plate was sealed and placed on a pre-heated shaker, and incubated at physiological temperature (+37 °C) for 4 h. After the incubation, aliquots of 50 µL for the donor and 200 µL for the receiver were removed from the chambers and placed into a 96-well plate. Plasma (50 µL) was added to the wells containing the receiver samples and 200 µL of PBS was added to the wells containing the donor samples. Two volumes of ACN were added to each well, and the samples were mixed and centrifuged, after which the supernatant was analysed by LC-MS/MS."}, "[4]": {"experiment": "terminal plasma and brain exposure in female rats (PRS study)", "type": "in vivo, rat", "conditions": "3-30 mg/kg p.o.", "method": "Briefly, total blood was collected by intra-cardiac puncture on anaesthetized (3% Isoflurane, 3 L/min) animals into pre-cooled K3EDTA tubes. […] At least 100–200 µL of plasma was gently collected and immediately frozen at −80 °C. After decapitation, the whole brain was collected, rinsed with fresh ice-cold 0.9% NaCl solution, and thereafter frozen in dry ice and stored in a polypropylene tube at −80 °C."}, "[5]": {"tested_on": "CCI-induced mechanical hypersensitivity in male rats", "experiment": "paw pressure test in chronic constriction injury (CCI) model", "procedure": "Prior to behavioral studies, the rats were habituated to the experimental conditions and handling. The common sciatic nerve of the right hindpaw was injured at the level of the middle of the thigh. Proximal to the sciatic trifurcation, four loose ligatures were tied around it with about 1 mm spacing using Mersilk sutures in anaesthetized rats (Xylazine 10 mg/kg i.p., Ketamine 60 mg/kg i.p.). Great care was taken to tie the ligatures, such that the diameter of the nerve was seen to be just barely constricted. Sham animals received only a skin and muscle incision. Fourteen days after the surgery, individual baseline values of the withdrawal threshold evoked by squeezing of the hind limb between a flat surface and a blunt pointer with an analgesimeter (Ugo Basile, Gemonio, Italy) were determined on both hindpaws while the animal was gently held in a restrained position. The analgesimeter exerted a steadily increasing force, and the reaction threshold was determined as the pressure (g) required to elicit paw withdrawal and/or vocalization. […] Dosing and testing were performed in a random order.\nStatistical analyses were conducted using GraphPad Prism (version 8.4.2) and p < 0.05 was considered to represent a significant difference."}, "mice": {"tested_on": "mice", "conditions": "mouse, in vivo, po; cited from earlier work"}, "incised mice": {"tested_on": "incised mice", "set-up": "method as in PMID 34039739", "conditions": "hindpaw administration; cited from earlier work"}, "[6]": {"experiment": "plasma and brain exposure in male rats (CCI study and satellite rats)", "type": "in vivo, rat", "conditions": "independent of dose or sampling time", "method": "Terminal samples for concentration analyses were also collected from HC-070-treated sciatic nerve-injured male animals at the end of the paw pressure test, and from female rats at the end of the last colonic distension test in the partial restraint stress (PRS) study. Briefly, total blood was collected by intra-cardiac puncture on anaesthetized (3% Isoflurane, 3 L/min) animals into pre-cooled K3EDTA tubes. Samples were gently mixed, placed on ice, and centrifuged at the latest within 30 min after collection at 1600× g or 1710× g for 10 min at 4 °C. At least 100–200 µL of plasma was gently collected and immediately frozen at −80 °C. After decapitation, the whole brain was collected, rinsed with fresh ice-cold 0.9% NaCl solution, and thereafter frozen in dry ice and stored in a polypropylene tube at −80 °C."}, "[7]": {"tested_on": "partial restraint stress-induced colonic hypersensitivity in female rats", "experiment": "colonic distension test in partial restraint stress model", "conditions": "for percentual anti-hypersensitivity activity on colonic hypersensitivity: mean of three trials", "procedure": "Animals were placed for 2 h in a plexiglas restraint cylinder in order to restrict, but not impede, body movements. Naïve control animals were allowed to move freely in their cages. Immediately after completion of the 2 h restraint stress period, 3 consecutive determinations of colonic sensitivity were performed every 20 min.\nColonic sensitivity was assessed by measuring the intra-colonic pressure required to induce a pain-related behavioral response during colonic distension (Electronic barostat, Distender Series IIRTM). Sedation is considered as a confounding factor in the assessment of pain, and therefore all experiments were performed in non-sedated conscious rats. In order to reduce bias, all experiments were performed by the same dedicated personnel within a study. The visceral pressure range was studied from 5 to 75 mmHg, but pain responses were typically evident at 30–35 mmHg. Briefly, a 5 cm balloon was gently inserted into the colon of conscious rats at 7 to 10 cm from the anus, and the catheter was taped to the base of the tail. After a 30 min acclimation period with the inserted balloon, colonic pressure was increased by 5 mmHg steps every 30 s, from 5 to 75 mmHg (cut-off), until pain-related elevation of the hind part of the rat body and/or a clearly visible abdominal contraction corresponding to severe cramp were evident.\nThe formula: ((Distension thresholdTNBS/PRS + veh − Distension thresholdnaïve + veh)/(Distension thresholdnaïve + veh)) × 100, was used to calculate percentual variation due to trinitrobenzene sulfonic acid administration or partial restraint stress, as compared to naïve rats. […] Statistical analyses were conducted using GraphPad Prism (version 8.4.2) and p < 0.05 was considered to represent a significant difference."}, "[8]": {"experiment": "brain homogenate binding, rapid equilibrium dialysis", "type": "in vitro ADME, rat", "conditions": "as fraction", "method": "The brain homogenate binding study was carried out in male Wistar Hannover brain homogenate, obtained from BioreclamationIVT (Baltimore, MD, USA). Brains were homogenized with two volumes of PBS prior to initiating the experiment. The instrumentation, volume ratios, incubation conditions, and sample preparation were the same as described above for plasma protein binding (brain homogenate used instead of plasma)."}, "[9]": {"tested_on": "trinitrobenzene sulfonic acid-induced colonic hypersensitivity in male rats", "experiment": "colonic distension test in TNBS-induced colonic hypersensitivity model", "type": "in vivo, rat", "conditions": "for mean percentual colonic anti-hypersensitivity activity: mean of four trials (30, 50, 70, 120 min)"}, "[10]": {"tested_on": "rat spared nerve injury model of neuropathic pain", "conditions": "amygdaloid application; cited from earlier work"}, "[11]": {"tested_on": "mustard oil-induced visceral pain-related behaviors and hindpaw mechanical hypersensitivity", "conditions": "intraperitoneal, and oral to a lesser extent; cited from earlier work"}},
  "data": [
    {"smiles": "c1ccc(Cn2c(NCc3ccco3)nc3ccccc32)cc1", "note": "[AC1903]", "values": [
      {"measurement": "effect on mechanical hypersensitivity", "setting": "[1]", "value": "failed to attenuate"},
      {"measurement": "effect on persistent mechanical pain", "setting": "[2]", "value": "prevents the persistent mechanical pain"},
      {"measurement": "effect on naïve mechanical sensitivity", "setting": "uninjured mice", "value": "did not change"}
    ]},
    {"smiles": "Cn1c(=O)n(CCCO)c(=O)c2c1nc(Oc1cccc(Cl)c1)n2Cc1ccc(Cl)cc1", "note": "[HC-070]", "values": [
      {"measurement": "plasma protein binding", "setting": "[3]", "value": 99.5, "unit": "%"},
      {"measurement": "KP,uu,BR (partitioning coefficient between unbound brain and plasma exposures)", "setting": "[4]", "value": "0.5–0.8"},
      {"measurement": "reversal percentage of CCI-induced mechanical hypersensitivity, injured paw", "setting": "[5]; 3 mg/kg p.o., 45 min", "value": 34, "unit": "%"},
      {"measurement": "effect on CCI-induced mechanical hypersensitivity (withdrawal threshold, injured paw)", "setting": "[5]; 10 mg/kg p.o., 75 min", "value": "significantly attenuated"},
      {"measurement": "reversal percentage of CCI-induced mechanical hypersensitivity, injured paw", "setting": "[5]; 10 mg/kg p.o., 75 min", "value": 51, "unit": "%"},
      {"measurement": "effect on CCI-induced mechanical hypersensitivity (withdrawal threshold, injured paw)", "setting": "[5]; 30 mg/kg p.o., 45 min", "value": "significantly attenuated"},
      {"measurement": "reversal percentage of CCI-induced mechanical hypersensitivity, injured paw", "setting": "[5]; 30 mg/kg p.o., 45 min", "value": 62, "unit": "%"},
      {"measurement": "effect on locomotor activity", "setting": "mice", "value": "nor did oral HC-070 treatment alter the locomotor activity"},
      {"measurement": "effect on established postoperative mechanical hypersensitivity", "setting": "incised mice", "value": "alleviated"},
      {"measurement": "KP,uu,BR (partitioning coefficient between unbound brain and plasma exposures)", "setting": "[6]", "value": "0.4–0.6"},
      {"measurement": "percentual anti-hypersensitivity activity on colonic hypersensitivity", "setting": "[7]; 3 mg/kg p.o.", "value": 100, "unit": "%"},
      {"measurement": "percentual anti-hypersensitivity activity on colonic hypersensitivity", "setting": "[7]; 10 mg/kg p.o.", "value": 181, "unit": "%"},
      {"measurement": "percentual anti-hypersensitivity activity on colonic hypersensitivity", "setting": "[7]; 30 mg/kg p.o.", "value": 188, "unit": "%"},
      {"measurement": "effect on colonic sensibility after PRS", "setting": "[7]; oral doses of 3, 10 and 30 mg/kg", "value": "dose-dependently restored"},
      {"measurement": "unbound fraction in rat brain homogenate", "setting": "[8]", "value": 0.001},
      {"measurement": "effect on TNBS-induced colonic hypersensitivity (colonic distension threshold)", "setting": "[9]; 3 mg/kg p.o., at 70 and 120 min", "value": "significantly and in a dose-dependent manner attenuated"},
      {"measurement": "mean percentual colonic anti-hypersensitivity activity", "setting": "[9]; 3 mg/kg p.o.", "value": 58, "unit": "%"},
      {"measurement": "effect on TNBS-induced colonic hypersensitivity (colonic distension threshold)", "setting": "[9]; 10 mg/kg p.o., all time points (30-120 min)", "value": "reversed"},
      {"measurement": "mean percentual colonic anti-hypersensitivity activity", "setting": "[9]; 10 mg/kg p.o.", "value": 99, "unit": "%"},
      {"measurement": "effect on TNBS-induced colonic hypersensitivity (colonic distension threshold)", "setting": "[9]; 30 mg/kg p.o., all time points (30-120 min)", "value": "reversed"},
      {"measurement": "mean percentual colonic anti-hypersensitivity activity", "setting": "[9]; 30 mg/kg p.o.", "value": 134, "unit": "%"}
    ]},
    {"smiles": "Cc1cc(N2CCCCC2)nc2ccccc12", "note": "[ML-204]", "values": [
      {"measurement": "effect on mechanical hypersensitivity and affective-like spontaneous pain-related behavior", "setting": "[10]", "value": "dose-dependent suppression"},
      {"measurement": "effect on mustard oil-induced visceral pain-related behaviors and hindpaw mechanical hypersensitivity", "setting": "[11]", "value": "dose-dependently attenuated"}
    ]},
    {"smiles": "CN1CC[C@]23c4c5ccc(O)c4O[C@H]2[C@@H](O)C=C[C@H]3[C@H]1C5", "note": "[morphine]", "values": [
      {"measurement": "effect on mechanical withdrawal threshold of the non-injured control paw", "setting": "[5]; 3 mg/kg s.c.", "value": "statistically significantly increased"},
      {"measurement": "effect on sustained CCI-induced mechanical hypersensitivity (reversal)", "setting": "[5]; 3 mg/kg s.c., first two time points (45, 75 min)", "value": "abolished"},
      {"measurement": "effect on PRS-lowered visceral pain threshold", "setting": "[7]; 1 mg/kg s.c.", "value": "significant reversal"},
      {"measurement": "percentual anti-hypersensitivity activity on colonic hypersensitivity", "setting": "[7]; 1 mg/kg s.c.", "value": 272, "unit": "%"}
    ]}
  ]
}
